The target of test [1] is Ca2+/calmodulin-dependent protein kinase II (CaM kinase II) (Rattus norvegicus, UniProt P11275+P08413+P15791+P11730). Put plainly: Inhibition of Calcium/calmodulin-dependent protein kinase type II (CaMKII) activity. It counts as protein assay.
Another test addresses MAP kinase p38 (Homo sapiens, UniProt O15264+Q15759+Q16539+P53778). Put plainly: Inhibition of p38 Mitogen-activated protein kinase. It counts as protein assay.
Test [2] addresses Myosin light chain kinase, smooth muscle (Gallus gallus, UniProt P11799). Put plainly: Inhibition of Myosin Light Chain kinase (MLCK).
Another test deals with Protein kinase C (PKC). Put plainly: Inhibition of Protein kinase C (PKC) activity, Enzyme assay done using gamma-[32P]ATP and synthetic peptide substrates. Also noted: species or system Rattus norvegicus.
Test [3] addresses cAMP-dependent protein kinase A (Bos taurus, UniProt P00515+P00517+P05131+P31322). Description: Inhibition of Protein kinase A (PKA) activity, Enzyme assay was done using gamma-[32P]ATP and synthetic peptide substrates. The format is protein-complex assay.

Data on 2 molecules can be found in ChEMBL document CHEMBL1135701, “Discovery of a 3-amino-6-phenyl-pyridazine derivative as a new synthetic antineuroinflammatory compound” (J Med Chem, 2002).

Myosin light chain kinase, smooth muscle, sequence (P11799 whole entry): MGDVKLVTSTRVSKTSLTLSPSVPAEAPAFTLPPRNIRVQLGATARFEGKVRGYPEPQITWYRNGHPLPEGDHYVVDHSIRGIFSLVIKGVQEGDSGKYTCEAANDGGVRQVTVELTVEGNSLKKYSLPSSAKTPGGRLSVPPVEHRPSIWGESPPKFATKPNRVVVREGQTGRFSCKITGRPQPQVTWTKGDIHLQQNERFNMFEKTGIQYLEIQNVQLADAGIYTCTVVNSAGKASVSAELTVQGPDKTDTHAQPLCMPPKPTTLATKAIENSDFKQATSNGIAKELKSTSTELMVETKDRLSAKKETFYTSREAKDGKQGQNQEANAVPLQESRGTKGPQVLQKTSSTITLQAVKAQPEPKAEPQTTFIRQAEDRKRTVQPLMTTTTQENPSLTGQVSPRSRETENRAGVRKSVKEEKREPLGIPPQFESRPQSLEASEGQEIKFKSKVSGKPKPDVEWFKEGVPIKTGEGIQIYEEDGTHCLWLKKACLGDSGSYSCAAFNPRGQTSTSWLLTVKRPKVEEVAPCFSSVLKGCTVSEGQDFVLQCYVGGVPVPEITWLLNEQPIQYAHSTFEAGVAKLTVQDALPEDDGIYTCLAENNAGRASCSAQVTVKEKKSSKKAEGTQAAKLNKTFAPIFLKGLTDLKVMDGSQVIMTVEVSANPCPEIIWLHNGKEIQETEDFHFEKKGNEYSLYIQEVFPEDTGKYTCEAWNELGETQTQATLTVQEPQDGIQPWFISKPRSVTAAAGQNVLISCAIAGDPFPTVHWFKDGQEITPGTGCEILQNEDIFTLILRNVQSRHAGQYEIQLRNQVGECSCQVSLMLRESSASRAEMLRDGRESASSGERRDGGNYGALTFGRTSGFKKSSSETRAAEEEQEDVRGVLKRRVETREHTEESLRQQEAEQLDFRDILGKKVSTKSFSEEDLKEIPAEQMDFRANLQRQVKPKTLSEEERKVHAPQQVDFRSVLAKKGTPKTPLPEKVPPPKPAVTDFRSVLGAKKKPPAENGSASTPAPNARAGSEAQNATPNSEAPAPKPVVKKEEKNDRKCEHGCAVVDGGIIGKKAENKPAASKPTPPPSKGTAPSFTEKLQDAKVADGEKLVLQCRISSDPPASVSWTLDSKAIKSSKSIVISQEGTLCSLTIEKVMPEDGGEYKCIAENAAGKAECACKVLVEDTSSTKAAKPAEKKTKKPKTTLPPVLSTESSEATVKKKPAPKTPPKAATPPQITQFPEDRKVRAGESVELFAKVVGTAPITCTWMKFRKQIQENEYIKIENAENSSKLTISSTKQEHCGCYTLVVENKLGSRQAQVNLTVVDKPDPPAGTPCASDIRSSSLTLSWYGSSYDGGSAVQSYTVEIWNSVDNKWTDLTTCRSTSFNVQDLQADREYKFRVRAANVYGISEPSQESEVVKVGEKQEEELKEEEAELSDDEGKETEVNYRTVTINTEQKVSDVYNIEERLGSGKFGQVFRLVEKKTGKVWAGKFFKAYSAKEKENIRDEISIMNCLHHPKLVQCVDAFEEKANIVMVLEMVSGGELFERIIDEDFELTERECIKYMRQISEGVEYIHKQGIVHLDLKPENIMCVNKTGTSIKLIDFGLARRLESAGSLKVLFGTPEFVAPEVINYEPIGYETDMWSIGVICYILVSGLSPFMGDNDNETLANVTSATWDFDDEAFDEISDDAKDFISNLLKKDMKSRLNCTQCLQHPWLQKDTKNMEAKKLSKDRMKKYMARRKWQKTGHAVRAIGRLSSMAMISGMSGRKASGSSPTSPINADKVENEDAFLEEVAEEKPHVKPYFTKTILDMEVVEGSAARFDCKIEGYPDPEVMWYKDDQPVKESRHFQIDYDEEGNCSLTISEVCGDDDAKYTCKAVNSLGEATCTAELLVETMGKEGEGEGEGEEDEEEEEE

By IC50 is commonly meant the concentration needed to halve the response being measured. Consider `N=c1cc2c(nn1CCCCCCCCCCC(=O)N1CCN(c3ncccn3)CC1)-c1ccccc1CC2`, for which the IC50 in test [1] was 9.7 µM; at MAP kinase p38 it was more than 100 µM; in test [2], more than 100 µM; on Protein kinase C (PKC), more than 100 µM; in test [3], more than 100 µM.

On to `COc1ccc(S(=O)(=O)N(CCO)c2ccccc2CN(C)C/C=C/c2ccc(Cl)cc2)cc1`, for which the IC50 in test [1] was 8.4 µM; against MAP kinase p38 it was more than 100 µM; against Protein kinase C (PKC), more than 100 µM; in test [3], more than 100 µM.
